“And” between values parts separate entries of the source, which are not always exact repeats. Identical values can stand only once. Like-named read-outs stand apart in the source and are kept apart here.
What was measured:
[1] = test system: P. falciparum K1 and FCR3 strain; details: cited from earlier work
[2] = biological target: T1, PfPanK1 (Plasmodium falciparum, UniProt Q8ILP4); test: Screening of natural compounds for PfPanK inhibitors and IC50 determination (recombinant enzyme, ADP Hunter Plus); type: biochemical
T1 sequence (Q8ILP4 1-519): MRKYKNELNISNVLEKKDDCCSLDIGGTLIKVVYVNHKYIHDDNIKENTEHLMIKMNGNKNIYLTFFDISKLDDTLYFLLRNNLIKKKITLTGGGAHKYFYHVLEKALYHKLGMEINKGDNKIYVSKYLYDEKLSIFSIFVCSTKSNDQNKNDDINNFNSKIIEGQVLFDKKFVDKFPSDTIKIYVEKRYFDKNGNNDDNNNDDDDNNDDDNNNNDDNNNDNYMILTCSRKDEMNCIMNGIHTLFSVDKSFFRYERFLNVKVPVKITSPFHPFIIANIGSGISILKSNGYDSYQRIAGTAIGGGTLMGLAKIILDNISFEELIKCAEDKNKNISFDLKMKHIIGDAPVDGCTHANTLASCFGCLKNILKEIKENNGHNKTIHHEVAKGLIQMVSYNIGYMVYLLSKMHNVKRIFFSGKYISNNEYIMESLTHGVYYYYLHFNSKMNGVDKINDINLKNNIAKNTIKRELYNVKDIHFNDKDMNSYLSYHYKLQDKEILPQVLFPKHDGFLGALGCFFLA
Method: We screened 247 compounds from the Kitasato Natural Products Library ([Mori et al., 2015]; [Nurkanto et al., 2018]) against PfPanK recombinant enzyme. Compounds were dissolved in 50% DMSO at a final concentration of 1 mg/ml.

[3] = biological target: T1, PfPanK1; type: biochemical
[4] = substrate pair pantetheine and ATP
[5] = substrate pair pantetheine and ATP, 120 µM ATP or 100 µM pantetheine, 37°C
[6] = substrate pair pantothenate and ATP
[7] = metal ion 5 mM, substrate pantetheine, relative to MgCl2, pH 8.4, 37°C
[8] = metal ion 5 mM, substrate pantothenate, relative to MgCl2, pH 8.4, 37°C
[9] = primary screening; compound at 50 µM final concentration (methods: 50 µg/ml); 37°C, 2 h
[10] = pantetheine as substrate, 100 μM ATP, pH 8.4, 37°C

## CC(=O)Oc1cccc2c(=O)c3c4c(c(=[N+]=[N-])c=3c(=O)c12)C(OC(C)=O)C(C)(OC(C)=O)C(OC(C)=O)C4OC(C)=O (stereo not drawn) [Diacetylkinamycin C]
[1]; FCR3 strain, ref Shimizu el al., 2019, unpublished, read-out: IC50 P. falciparum erythrocytic stages
  IC50: 1.1 µM
[1]; K1 strain, ref Shimizu el al., 2019, unpublished, read-out: IC50 P. falciparum erythrocytic stages
  IC50: 2.2 µM
[1]; range over drug-resistant K1 and drug-sensitive FCR3 strain, ref Shimizu et al., 2019, unpublished, read-out: IC50 against P. falciparum
  IC50: 1.1 to 2.2 µM
[2]; primary screening; 37°C, 2 h
  inhibition: 96.1%
[2]; recombinant PfPanK1; mean ± SEM
  IC50: 36.2 ± 4.7 µM

## O=c1ccn([C@@H]2O[C@H](COP(=O)(O)OP(=O)(O)OP(=O)(O)O)[C@@H](O)[C@H]2O)c(=O)[nH]1 [UTP]
[3]; pH 8.4
  Relative activity (%) Pantetheine: 23.8 ± 2.3%
  Relative activity (%) Pantothenate: 64.1 ± 1.0%

## Nc1ncnc2c1ncn2[C@@H]1O[C@H](COP(=O)(O)OP(=O)(O)OP(=O)(O)O)[C@@H](O)[C@H]1O [ATP]
[3]
  K m: 59.3 ± 7.9 µM
[3]; pH 8.4
  Relative activity (%) Pantothenate: 100%
[3]; phosphoryl donor (NTP) 100 µM, substrate pantetheine, relative to ATP, pH 8.4, 37°C
  Relative activity (%) Pantetheine: 100%
[3]; [4]
  V max: 18.3 ± 3.0 µmol/min/mg
  k cat: 20.55 ± 0.9 s⁻¹
  k cat/K m: 26.6 ± 6.3 min^-1µM^-1
[3]; [5]
  K m: 43.4 ± 3.3 µM and 43.4 ± 3.4 µM
[3]; [6]
  V max: 15.9 ± 2.5 µmol/min/mg
  k cat: 16.1 ± 1.72 s⁻¹
  k cat/K m: 16.1 ± 1.0 min^-1µM^-1

## [Cl-].[K+] [KCl]
[3]; [7]
  Relative activity (%) Pantetheine: 33.6 ± 3.4%
[3]; [8]
  Relative activity (%) Pantothenate: 29.7 ± 2.3%

## [Cl-].[Cl-].[Zn+2] [ZnCl2]
[3]; [7]
  Relative activity (%) Pantetheine: 29.0 ± 0.6%
[3]; [8]
  Relative activity (%) Pantothenate: 35.6 ± 5.6%

## CO[C@@H]1[C@@H](O[C@@H]2O[C@H](C)[C@@H](O[C@H]3C[C@@](C)(O)[C@@H](OC(=O)CC(C)C)[C@H](C)O3)[C@H](N(C)C)[C@H]2O)[C@@H](CC=O)C[C@@H](C)[C@@H](O)/C=C/C=C/C[C@@H](C)OC(=O)C[C@H]1OC(C)=O [Leucomycin A3]
[2]; 2 h, primary screening; 37°C
  inhibition: 40.1%

## C/C=C\C=C\[C@@H]1O[C@](O)([C@H](CC)C(=O)NC/C=C/C=C(\C)[C@@H](OC)[C@@H](C)[C@@H]2O[C@H](/C=C/C=C/C=C(\C)C(=O)c3c(O)ccn(C)c3=O)[C@H](O)[C@@H]2O)[C@H](O)[C@H](O)C1(C)C [Aurodox]
[2]; [9]
  PfPanK1 Inhibition (%): 52.2%

## CCC[C@@H]1C[C@@H](C(=O)N[C@@H]([C@H]2O[C@H](SC)[C@H](O)[C@@H](O)[C@H]2O)[C@@H](C)O)N(C)C1 [Lincomycin]
[2]; 2 h, primary screening; 37°C
  inhibition: 41.3%

## [Cl-].[Na+] [NaCl]
[3]; pH 8.4
  Relative activity (%) Pantetheine: 33.1 ± 6.2%
  Relative activity (%) Pantothenate: 41.4 ± 5.3%

## [Cl][Fe][Cl] [FeCl2]
[3]; [7]
  Relative activity (%) Pantetheine: 58.3 ± 3.3%
[3]; metal ion 5 mM, substrate pantetheine, relative to MgCl2, pH 8.4, 37°C, listed as Ferrous cation
  Relative activity (%) Pantetheine: approximately 60%
[3]; [8]
  Relative activity (%) Pantothenate: 104.7 ± 14.9%

## NC[C@@H]1O[C@H](O[C@H]2[C@@H](O)[C@H](O[C@@H]3[C@@H](O)[C@H](N)C[C@H](N)[C@H]3O[C@H]3O[C@H](CO)[C@@H](O)C[C@H]3N)O[C@@H]2CO)[C@H](N)[C@@H](O)[C@@H]1O[C@H]1O[C@H](CO)[C@@H](O)[C@H](O)[C@@H]1O [Lividomycin A]
[2]; 2 h, primary screening; 37°C
  inhibition: 44%

## C=C/C(C)=C/[C@@]1(C)SC(=O)C(C)=C1O [Thiolactomycin]
[2]; primary screening; 37°C, 2 h
  inhibition: 42.4%

## Thaimycin
[2]; [9]
  PfPanK1 Inhibition (%): 53.9%

## CC(C)(CO)C(O)C(=O)NCCCO (stereo not drawn) [panthenol]
[3]; high concentrations of panthenol (e.g., 0.5 mM), regardless of the substrates
  Increase of enzyme activity: up to 40%
[3]; [10]
  Effect on PfPanK1 activity: did not inhibit PfPanK1 activity
[3]; pantothenate as substrate, 100 μM ATP, pH 8.4, 37°C
  Effect on PfPanK1 activity: did not inhibit PfPanK1 activity

## CC(C)(COP(=O)(O)OP(=O)(O)OC[C@H]1O[C@@H](n2cnc3c(N)ncnc32)[C@H](O)[C@@H]1OP(=O)(O)O)[C@@H](O)C(=O)NCCC(=O)NCCS [CoA, Coenzyme A]
[3]; pH 8.4
  Effect on PfPanK1 activity: inhibited
[3]; [10]
  Effect on PfPanK1 activity: inhibited

## [Ca+2].[Cl-].[Cl-] [CaCl2]
[3]; [7]
  Relative activity (%) Pantetheine: 30.5 ± 1.6%
[3]; [8]
  Relative activity (%) Pantothenate: 39.9 ± 4.7%

## CC1(C)S[C@@H]2[C@H](NC(=O)[C@H](N)c3ccc(O)cc3)C(=O)N2[C@H]1C(=O)O [Amoxicillin]
[2]; primary screening; 37°C, 2 h
  inhibition: 45.7%

## Cc1nnc(SCC2=C(C(=O)O)N3C(=O)[C@@H](NC(=O)Cn4cnnn4)[C@H]3SC2)s1 [Cefazolin]
[2]; 2 h, primary screening; 37°C
  inhibition: 44.2%

## Gardimycin
[2]; [9]
  PfPanK1 Inhibition (%): 42.5%

## CS[C@H]1SC[C@H]2C(=O)N(C)[C@@H](C(C)C)C(=O)OC[C@@H](NC(=O)c3cnc4ccccc4n3)C(=O)N[C@@H](C)C(=O)N(C)[C@@H]1C(=O)N(C)[C@@H](C(C)C)C(=O)OC[C@@H](NC(=O)c1cnc3ccccc3n1)C(=O)N[C@@H](C)C(=O)N2C [Echinomycin]
[2]; 2 h, primary screening; 37°C
  inhibition: 47.1%

## CC(/C=C/C(O)=C1/C(=O)CNC1=O)=C\[C@@H](C)[C@H]1O[C@@]2(C)O[C@H](C(=O)[C@H]3O[C@]32C)[C@@H]1C [Tirandamycin A]
[2]; [9]
  PfPanK1 Inhibition (%): 49.7%

## CON1C(=O)[C@H]2NC(=O)[C@]13Oc1cc(O)c(Cl)cc1[C@@H]3SS2 [Aspirochlorine]
[2]; 2 h, primary screening; 37°C
  inhibition: 49.7%

## Nc1ccn([C@@H]2O[C@H](COP(=O)(O)OP(=O)(O)OP(=O)(O)O)[C@@H](O)[C@H]2O)c(=O)n1 [CTP]
[3]; pH 8.4
  Relative activity (%) Pantetheine: 11.3 ± 0.6%
  Relative activity (%) Pantothenate: 28.1 ± 2.8%

## [Cl][Cu][Cl] [CuCl2]
[3]; [7]
  Relative activity (%) Pantetheine: 8.5 ± 1.3%
[3]; [8]
  Relative activity (%) Pantothenate: 16.4 ± 1.5%

## Cc1cn([C@H]2C[C@H](O)[C@@H](COP(=O)(O)OP(=O)(O)OP(=O)(O)O)O2)c(=O)[nH]c1=O [TTP]
[3]; pH 8.4
  Relative activity (%) Pantetheine: 0.0 ± 0.0%
  Relative activity (%) Pantothenate: 13.1 ± 1.0%

## [Cl-].[Li+] [LiCl2]
[3]; [7]
  Relative activity (%) Pantetheine: 32.6 ± 4.1%
[3]; [8]
  Relative activity (%) Pantothenate: 37.9 ± 9.6%

## Nc1nc2c(ncn2[C@@H]2O[C@H](COP(=O)(O)OP(=O)(O)OP(=O)(O)O)[C@@H](O)[C@H]2O)c(=O)[nH]1 [GTP]
[3]; pH 8.4
  Relative activity (%) Pantetheine: 106.5 ± 4.4%
  Relative activity (%) Pantothenate: 107.6 ± 8.1%

## CC(C)(CO)[C@@H](O)C(=O)NCCC(=O)NCCS [Pantetheine]
[3]; [4]
  V max: 19.6 ± 1.2 µmol/min/mg
  k cat: 19.52 ± 0.417 s⁻¹
  k cat/K m: 25.6 ± 0.7 min^-1µM^-1
[3]; [5]
  K m: 45.7 ± 6.9 µM

## Gramicidin NF
[2]; [9]
  PfPanK1 Inhibition (%): 45.5%

## CC(=O)SCCNC(=O)CCNC(=O)[C@H](O)C(C)(C)COP(=O)(O)OP(=O)(O)OC[C@H]1O[C@@H](n2cnc3c(N)ncnc32)[C@H](O)[C@@H]1OP(=O)(O)O [Acetyl CoA]
[3]; [10]
  Effect on PfPanK1 activity: did not affect PfPanK1 activity
[3]; pantothenate as substrate
  IC50: > 1000 µM

## Nc1ncnc2c1ncn2[C@H]1C[C@H](O)[C@@H](COP(=O)(O)OP(=O)(O)OP(=O)(O)O)O1 [dATP]
[3]; pH 8.4
  Relative activity (%) Pantetheine: 8.5 ± 2.7%
  Relative activity (%) Pantothenate: 9.0 ± 2.2%

## [Cl-].[Cl-].[Mg+2] [MgCl2]
[3]; [7]
  Relative activity (%) Pantetheine: 100%
[3]; [8]
  Relative activity (%) Pantothenate: 100%

## [Cl][Mn][Cl] [MnCl2]
[3]; [7]
  Relative activity (%) Pantetheine: 55.3 ± 0.1%
[3]; [8]
  Relative activity (%) Pantothenate: 41.7 ± 8.4%

## CN[C@@H]1[C@H](O[C@H]2[C@H](O[C@H]3[C@H](O)[C@@H](O)[C@H](NC(=N)N)[C@@H](O)[C@@H]3NC(=N)N)O[C@@H](C)[C@]2(O)CO)O[C@@H](CO)[C@H](O)[C@H]1O [Dihydrostreptomycin]
[2]; 2 h, primary screening; 37°C
  inhibition: 44.7%

## [Cl][Ni][Cl] [NiCl2]
[3]; [7]
  Relative activity (%) Pantetheine: 41.4 ± 3.4%
[3]; [8]
  Relative activity (%) Pantothenate: 49.0 ± 5.5%

## [Cl-].[Cl-].[Co+2] [CoCl2]
[3]; pH 8.4, 37°C
  Relative activity (%) Pantetheine: 22.3 ± 1.0%
  Relative activity (%) Pantothenate: 25.8 ± 1.9%

## CN[C@@H]1[C@H](O)[C@H](NC)[C@H]2O[C@@]3(O)C(=O)C[C@@H](C)O[C@H]3O[C@@H]2[C@H]1O [Spectinomycin (Actinospectacin), Spectinomycin]
[2]; [9]
  PfPanK1 Inhibition (%): 55.0%

## CC(C)(CO)[C@@H](O)C(=O)NCCC(=O)O [Pantothenate]
[3]
  K m: 44.6 ± 5.6 µM
  k cat/K m: 19.1 ± 1.0 min^-1µM^-1
[3]; [6]
  V max: 14.2 ± 0.71 µmol/min/mg
  k cat: 14.2 ± 1.28 s⁻¹

## NC[C@H]1O[C@H](O[C@H]2[C@H](O[C@@H]3O[C@H](CO)[C@@H](O)[C@H]3O)[C@@H](O)[C@H](N)C[C@@H]2N)[C@H](N)[C@@H](O)[C@@H]1O [Ribostamycin]
[2]; 2 h, primary screening; 37°C
  inhibition: 46.6%

## CC(/C=C/C(=O)NO)=C\[C@@H](C)C(=O)c1ccc(N(C)C)cc1 [Trichostatin]
[2]; primary screening; 37°C, 2 h
  inhibition: 47.2%

## CN[C@@H]1[C@H](O)[C@H](NC)[C@H]2O[C@@]3(O)C(=O)C[C@@H](C)O[C@H]3O[C@@H]2[C@H]1O [Spectinomycin (Trobicin), Spectinomycin]
[2]; 2 h, primary screening; 37°C
  inhibition: 47.8%
